Results: patent publication US12595483B2, “Treatment of tumors with miRNA targeting CDK4/CDK6” (Institute For Cancer Research, priority 2017, dated 2026)

Legend:
Assay type in all cases: cell-based, human
p21 = assay: Western blot of p21 (cell cycle arrest); conditions: 50 nM mimic; 5-FU 384 μM (HT-29 and SW-480) or 25 μM (HCT-116 and RKO)
Procedure: (§1) Western blot: Western blotting was performed by routine and well known procedures. The following antibodies were used: CDK4 (Santa Cruz Biotechnology, sc-260), CDK6 (CST, D4S8S), CDK1 (Santa Cruz Biotechnology, sc-54), Cyclin-D1 (CST, 92G2), p-Rb (S795) (CST, 9301S), Total Rb, BCLxL (CST, 2764S), PARP (CST, 9542), p53-DO1 (Santa Cruz Biotechnology, sc-126), p21 (Calbiochem, OP64), and β-actin (Sigma, A5441).
(§2) A panel of CRC cell lines was reverse transfected with 25 nM (HCT-116) or 50 nM of SCR or indicated miRNA mimics. At 16 hours post-transfection, Irinotecan (see, FIG. 5A) or 5-FU (see, FIG. 5B) at indicated doses were added. Synergy of miRNA-drug was measured by cell viability 72 hours post-transfection using CellTiter-Glo assay. The effect on apoptosis and cell cycle markers with miRNA alone or combination were assessed using 50 nM of miRNA mimic and […] (HT-29 and SW-480) or 2.5 μM Irinotecan (HCT-116 and RKO) by western blot. For 5-FU, 384 μM (HT-29 and SW-480) and 25 μM (HCT-116 and RKO) were used. Representative western blots are shown in FIG. 5C and FIG. 5D, respectively.

[1] = system: panel of CRC cell lines (HCT-116, RKO, HT-29, SW-480); assay: miRNA-Irinotecan synergy by cell viability (CellTiter-Glo); conditions: 25 nM (HCT-116) or 50 nM mimic, Irinotecan added 16 hours post-transfection, read 72 hours; all four cell lines
Procedure: (§3) Cell Proliferation assays: Five thousand to ten thousand cells were reverse transfected with either scramble duplex or miRNA to a net concentration of 50 nM and plated in 96-well plate. Cell viability was measured 72 hours post-transfection using CellTiter-Glo® Luminescent Cell Viability Assay (Promega). Percent cell viability was calculated by normalizing the luminescence signal to scramble duplex wells. All transfections were performed in triplicates and reported as % Viability±SEM.
as §2

CDK4 3′UTR = assay: CDK4-Luciferase (pMirtarget CDK4 3′UTR) reporter assay in stable HCT-116 cells; conditions: 48 hours; for direct binding to the 3′UTR region of CDK4: pMirtarget-CDK4-Luciferase vector, HCT-116, 50 nM mimic
Procedure: (§4) Transfection of miRNA mimics, siRNA and plasmid constructs: All miRNA mimics and siRNA transfections were performed by reverse transfection using Lipofectamine RNAiMAX (Life technologies, Grand Island, NY). 80 nM siRNA was used in all experiments for HT-29, RKO and SW-480 cell lines. 40 nM siRNA was used for HCT-116 cells. miRNA mimics were transfected at concentrations of either 25 nM, 50 nM, or 100 nM, as indicated in respective assays. CDK4-Luciferase vector was transfected in HCT-116 cells using Lipofectamine 3000 (Life technologies, Grand Island, NY) and stable cells were selected using G418 antibiotic (500 μg/mL).
Luciferase assays: CDK4-Luciferase containing stable HCT-116 cells were reverse-transfected with either scramble duplex or 50 nM miRNA mimics. Luciferase signal was detected 48 hours post-transfection and Relative Luciferase Units (RLU) were calculated by normalizing luciferase signal per μg of protein per assay well. All transfections were performed in triplicates and reported as RLU units±SEM.
Referring in particular to FIGS. 2A, 2B, and 2C, data is presented showing that miR-6883-5p and miR-149* negatively regulate expression of […] and CDK6 in CRC cell lines. Referring to FIG. 2A, CDK4 and CDK6 protein levels were detected in a panel of CRC cell lines reverse transfected with 50 nM of miRNA mimics or scrambled duplex (SCR) for 72 hours. Referring to FIG. 2B, qRT-PCR was performed for CDK4 and CDK6 in SCR or miRNA mimics transfected in CRC cell lines (50 nM, 72 hours, n=3). *, ** and *** indicate p-value relative to SCR expression. Referring to FIG. 2C, HCT-116 cells stably selected with CDK4-Luciferase construct were reverse transfected with SCR or 50 nM of the indicated miRNA mimics for 48 hours. Measured luciferase activities were normalized per μg of protein for indicated samples and reported as RLU±SEM (n=3). * indicates p-value relative SCR RLU.

CDK4 = CDK4 protein (western blot) and RNA (qRT-PCR) expression in CRC cell lines transfected with miRNA mimics; conditions: 50 nM miRNA mimic vs scrambled duplex, 72 hours; HCT-116, RKO, HT-29, SW-480
Procedure: as §4
(§5) Quantitative RT-PCR (qRT-PCR): Total RNA, which includes miRNA, was isolated using the Quick-RNA™ MiniPrep kit (Zymo Research, Irvine, CA). One μg of total RNA from each sample was subjected to cDNA synthesis using SuperScript® III Reverse Transcriptase kit (Life Technologies, Grand Island, NY), for detection of CDK4, CDK6, and housekeeping genes. […] The relative expression of the reported genes and miRNAs was determined using real-time PCR performed on Applied Biosystems 7900HT Fast Real-Time PCR system. […] Each cDNA sample was amplified using Power SYBR Green (Applied Biosystems, CA) and miRNA components were quantified using TaqMan® Universal Master Mix II, no UNG (Applied Biosystems, CA). […]

[2] = system: p53 mutant cell lines HT-29 and SW-480; assay: miRNA-5-FU combination by cell viability (CellTiter-Glo); conditions: 50 nM mimic, 5-FU added 16 hours post-transfection, read 72 hours
Procedure: as §3, §2

phosphorylated Rb (S795) = assay: Western blot of cell cycle markers; conditions: 100 nM miRNA mimics, 72 hours post-transfection; all four cell lines
Procedure: as §1
(§6) Referring in particular to FIGS. 3A, 3B, 3C, 3D, and 3E, data is presented showing that restoring expression of miR-6883-5p and miR-149* results in G1-arrest and cell death in CRC cell lines. […] The effects on cell viability were measured 72 hours post-transfection using CellTiter-Glo assay. Referring to FIG. 3B, the effects of the miRNA mimics on long-term cell proliferation of CRC cell lines was assessed by colony formation assays performed in 6-well plates. […] The effects on cell cycle markers (see, FIG. 3C) and markers of apoptosis (see, FIG. 3D) were evaluated by western blot 72 hours post-transfection. […] Referring to FIG. 3E, cell cycle profiles and apoptotic cells were assessed in three CRC cell lines by reverse transfecting with SCR or 50 nM (HCT-116 and HT-29) or 100 nM (RKO) miRNA mimics. 72 hours post-transfection, cells were fixed, stained with PI, and analyzed by FACS. […]

CDK6 = CDK6 protein (western blot) and RNA (qRT-PCR) expression in CRC cell lines transfected with miRNA mimics; conditions: 50 nM miRNA mimic vs scrambled duplex, 72 hours; HCT-116, RKO, HT-29, SW-480
Procedure: as §4, §5

PARP = assay: Western blot of markers of apoptosis (PARP cleavage); conditions: RKO and SW-480 cells; 100 nM miRNA mimics, 72 hours
Procedure: Referring to FIG. 3A, a panel of CRC cell lines was reverse transfected with 50 nM SCR or 50 nM of indicated miRNA mimics. […] All four CRC cell lines were reverse transfected with 100 nM SCR or indicated miRNA mimics. The effects on cell cycle markers (see, FIG. 3C) and markers of apoptosis (see, FIG. 3D) were evaluated by western blot 72 hours post-transfection. Representative western blots are shown (n=3).

BCLXL = assay: Western blot of BCLXL; conditions: 100 nM miRNA mimic, 72 hours
Procedure: as §1, §6

XIAP = assay: Western blot of XIAP; conditions: 100 nM miRNA mimic, 72 hours

| Compound | cell cycle arrest as seen by p21 levels, single agent (p21) | synergy with Irinotecan (cell viability) [1] | direct binding to the 3′UTR region of CDK4 (CDK4 3′UTR) | CDK4 protein and RNA level (CDK4) | sensitivity to 5-FU (cell viability) [2] | levels of phosphorylated Rb (S795) (phosphorylated Rb (S795)) | CDK6 protein and RNA level (CDK6) | apoptosis (PARP-cleavage) (PARP) | luciferase signal (CDK4 3′UTR; HCT-116 CDK4-Luciferase stable cells, 50 nM mimic, compared to miR-206 and miR-149*) | BCLXL level (BCLXL) | XIAP level (XIAP) |
| --- | --- | --- | --- | --- | --- | --- | --- | --- | --- | --- | --- |
| O=c1[nH]cc(F)c(=O)[nH]1 [5-FU, 5-fluorouracil, reference compound] | caused cell cycle arrest | – | – | – | – | – | – | – | – | – | – |
| hsa-miR-149-3p [miR-149*] | caused cell cycle arrest | synergized with Irinotecan | directly bind to the 3′UTR region of CDK4 | no impact on CDK4 | increased the sensitivity of p53 mutant cell lines HT-29 and SW-480 to 5-FU | reduced levels of phosphorylated Rb (S795) | more potent in reducing levels of CDK6 | – | – | – | – |
| hsa-miR-6883-5p (AGGGAGGGUGUGGUAUGGAUGU; called a modified oligonucleotide, chemistry not given here; listed as Homo sapiens) [miRNA mimic purchased from Sigma-Aldrich (HMI2616)] | – | synergized with Irinotecan | directly bind to the 3′UTR region of CDK4 | targeted both CDK4 and CDK6 at both the protein and RNA level | increased the sensitivity of p53 mutant cell lines HT-29 and SW-480 to 5-FU | reduced levels of phosphorylated Rb (S795) | targeted both CDK4 and CDK6 at both the protein and RNA level | most potent in inducing apoptosis | significantly reduced luciferase signal | downregulated XIAP and BCLXL | downregulated XIAP and BCLXL |
